Measured values: patent US20200268690A1, “TOPICAL COMPOSITIONS” (Atossa Therapeutics, Inc., priority 2017, published 2020)
Like-named read-outs stand apart in the source and are kept apart here.

Tests used:
[1] = Accelerated stability of (Z)-endoxifen free base in polar organic solvents in the absence and presence of human cadaver skin; format: physicochemical; conditions: for % Potency: relative to initiation of study; for potency and stability in presence of skin compared with absence of skin: in the solvents of Table 3, 45° C., after 2 days
Experimental: (§1) HPLC-UV. Briefly, (E)- and (Z)-endoxifen were analyzed by High Performance Liquid Chromatography, HPLC (instrument: Agilent 1100) using a UV detector (Agilent). Chromatographic resolution was obtained using a Luna Phenyl Hexyl Column ([…]×150 mm) at a column temperature of 40° C. Samples were injected in an injection volume of 10 ul and run at a flow rate of 1.0 ml/min. The mobile phase system used consisted of: A) water with 10 mM ammonium formate (HCOONH4) with 0.03% formic acid and B) Methanol with 10 mM ammonium formate (HCOONH4).
The stability studies of endoxifen free base in various pure polar organic solvents/MPEs were performed as described below. Accelerated stability studies of (Z)-endoxifen free base in solvents/MPEs were performed over a course of 2 days at 45° C. in both the presence and the absence of human cadaver skin to assess the degree to which the (Z)-endoxifen conversion to (E)-endoxifen by isomerization and or chemical degradation of the endoxifen is accelerated upon contact with skin and skin components. (Z)-Endoxifen solutions at […] of saturation concentrations were prepared in 1 ml batches in solvents as listed below in the Table 3. The potencies of (Z)-endoxifen and (E)-endoxifen were determined by HPLC-UV analysis as described above. Potency results are shown compared with potencies measured when the sample were stored at the initiation of stability study.

[2] = cited from earlier work
[3] = Solubility of endoxifen free base in polar organic solvents (HPLC-UV); format: physicochemical; conditions: for Z/E Ratio: room temperature
Experimental: (Z)-endoxifen free base was synthesized as described above in Example 1. (Z)-endoxifen was solubilized in various solvents as provided in Table 1, and tested for physical and chemical stability in solution. The solutions were prepared in ˜1 ml batches typically for solubility and stability testing. The mixture was stirred overnight on a rotisserie at room temperature. The next, day, the suspension was filtered using a syringe filter (0.2 um pore size GHP membrane). The filtrated solution was then analyzed for the concentration of (Z)-endoxifen and (E)-endoxifen as using a validated HPLC-UV method as described below.
as §1
UV detection of (E)-endoxifen and (Z)-endoxifen isomers was performed at 243 nm with a run time of 30 minutes. Retention times for (E)-endoxifen and (Z)-endoxifen were 15.14 m and 16.25 m respectively. […] The solubility of (Z)-endoxifen ranged from about 1 mg/g of solution to over 30 mg/g of solution.

patients = conditions: oral tamoxifen; cited from earlier work
[4] = in Diethyl Sebacate, 45° C. + skin, 2 days
[5] = in Diethyl Sebacate, 45° C., 2 days
[6] = in Diethylene glycol monoethyl ether, 45° C. + skin, 2 days
[7] = in Diethylene glycol monoethyl ether, 45° C., 2 days
[8] = in Diisopropyl Adipate, 45° C. + skin, 2 days
[9] = in Diisopropyl Adipate, 45° C., 2 days
[10] = in Dimethyl Isosorbide, 45° C. + skin, 2 days
[11] = in Dimethyl Isosorbide, 45° C., 2 days
[12] = in Dimethyl Sulfoxide, 45° C. + skin, 2 days
[13] = in Dimethyl Sulfoxide, 45° C., 2 days
[14] = in Dipropylene Glycol, 45° C. + skin, 2 days
[15] = in Dipropylene Glycol, 45° C., 2 days
[16] = in Isopropanol, 45° C. + skin, 2 days
[17] = in Isopropyl Myristate, 45° C. + skin, 2 days
[18] = in Isopropyl Myristate, 45° C., 2 days
[19] = in PEG 300, 45° C. + skin, 2 days

Compound	% Potency [1, 4]	% Potency [1, 5]	% Potency [1, 6]	% Potency [1, 7]	% Potency [1, 8]	% Potency [1, 9]	% Potency [1, 10]	% Potency [1, 11]	% Potency [1, 12]	% Potency [1, 13]	% Potency [1, 14]	% Potency [1, 15]	% Potency [1, 16]	% Potency ([1]; in Isopropanol, 45° C., 2 days)	% Potency [1, 17]	% Potency [1, 18]	% Potency [1, 19]	% Potency ([1]; in PEG 300, 45° C., 2 days)	potency and stability in presence of skin compared with absence of skin [1]	further results
CC/C(=C(/c1ccc(O)cc1)c1ccc(OCCNC)cc1)c1ccccc1 [(E)-endoxifen free base]	99%	101%	98%	100%	101%	100%	16%	15%	101%	101%	95%	95%	106%	106%	68%	67%	92%	91%	maintained potency and stability	–
CC/C(=C(\c1ccc(O)cc1)c1ccc(OCCNC)cc1)c1ccccc1.Cl [(Z)-endoxifen HCl]	–	–	–	–	–	–	–	–	–	–	–	–	–	–	–	–	–	–	–	t90 ([2]; 45° C.): 9 days; (Z)-endoxifen HCl remaining after degradation ([2]; aqueous medium, 45° C., day 15, from 98%): 75%; t90 ([2]; room temperature): 149 days
CC/C(=C(\c1ccc(O)cc1)c1ccc(OCCNC)cc1)c1ccccc1 [(Z)-endoxifen free base, (Z)-4-(1-(4-(2-(methylamino)ethoxy)phenyl)-2-phenylbut-1-enyl)phenol]	94%	100%	98%	100%	99%	99%	17%	16%	101%	102%	94%	93%	105%	105%	63%	65%	92%	91%	maintained potency and stability	–
CC/C(=C(\c1ccc(O)cc1)c1ccc(OCCNC)cc1)c1ccccc1 [Endoxifen free base, (E/Z)-4-[1-[4-[2-(Methylamino)ethoxy]phenyl]-2-phenyl-1-buten-1-yl]-phenol]	–	–	–	–	–	–	–	–	–	–	–	–	–	–	–	–	–	–	–	solubility (in words) ([3]; in polar organic solvents/MPEs such as DMSO, ethanol, diethylene monoethyl ether, and oleic acid): significantly soluble; Z/E Ratio ([3]; saturated solution in Capric Trigylceride (Solvent No. 15)): 0.63; Z/E Ratio ([3]; saturated solution in Diethyl Sebacate (Solvent No. 2)): 1.7; Z/E Ratio ([3]; saturated solution in Diethylene glycol monoethyl ether (Solvent No. 10)): 1.89; Z/E Ratio ([3]; saturated solution in Diisopropyl Adipate (Solvent No. 3)): 1.87; Z/E Ratio ([3]; saturated solution in Dimethyl Isosorbide (Solvent No. 4)): 1.82; Z/E Ratio ([3]; saturated solution in Dimethyl Sulfoxide (Solvent No. 1)): 1.87; Z/E Ratio ([3]; saturated solution in Dipropylene Glycol (Solvent No. 5)): 1.82; Z/E Ratio ([3]; saturated solution in Ethanol (Solvent No. 6)): 1.72; Z/E Ratio ([3]; saturated solution in Isopropanol (Solvent No. 7)): 1.88; Z/E Ratio ([3]; saturated solution in Isopropyl Myristate (Solvent No. 12)): 1.09; Z/E Ratio ([3]; saturated solution in Oleic Acid (Solvent No. 14)): 1.02; Z/E Ratio ([3]; saturated solution in PEG300 (Solvent No. 8)): 1.77; Z/E Ratio ([3]; saturated solution in PEG 400 (Solvent No. 11)): 1.78; Z/E Ratio ([3]; saturated solution in Propylene Glycol (Solvent No. 9)): 1.60; Z/E Ratio ([3]; saturated solution in Soybean Oil (Solvent No. 13)): 0.76; stability (in words) ([1]; dissolved in dimethyl isosorbide and isopropyl myristate, 45° C., 2 days): poor stability
CC/C(=C(\c1ccccc1)c1ccc(OCCN(C)C)cc1)c1ccccc1 [tamoxifen, (Z)-2-[4-(1,2-diphenyl-1-butenyl)phenoxy]-N,N-dimethylethanamine]	–	–	–	–	–	–	–	–	–	–	–	–	–	–	–	–	–	–	–	patients with elevated liver function tests, especially SGOT/AST (patients): about 5%
